Here are results for 2 molecules from patent publication US20230139445A1, “BACTERIAL CELLS WITH IMPROVED TOLERANCE TO DIACIDS” (priority 2016, published 2023).

For the assay, the system named is Escherichia coli K-12 MG1655 knockout mutants. Description: Growth Profiler growth screening of K-12 MG1655 single, double and triple knockout mutants in glutaric or adipic acid. The format is cell-based. As for the experimental part:
Five colonies from wild-type K-12 MG1655 and 10 individual colonies deriving from each population were inoculated into 300 μL M9+1% glucose in 96 well deepwell plates and incubated in a 300 rpm plate shaker at 37° C. The next day, cells were diluted 10× in M9+1% glucose and 30 μL was transferred into clear-bottomed 96 well half-deepwell plates (with rectangular wells) containing M9+1% glucose and M9+1% glucose+52.78 g/L glutaric acid or 55.56 g/L adipic acid, such that the final concentration of glutaric acid or adipic acid was 47.5 g/L or 50 g/L, respectively. In addition, cryogenic glycerol stocks of the overnight culture were saved in a 96 well plate format. Half deepwell plates were incubated at 37° C. with 225 rpm shaking in a Growth Profiler (Enzyscreen), with optical scans of the plates taken at 15 minute intervals. Green pixel values integrated over a 1 mm diameter circular area in each well were converted to OD600 values using a previously determined calibration between OD600 and green pixel values. […] In general, it was attempted to select three isolates per population for further analysis, and all populations were represented in the resequenced isolates.
Selected isolates from the primary screen were restruck onto LB agar from the cryogenic stock made from the overnight culture plate for the primary screen. Five K-12 MG1655 colonies and three individual colonies from each isolate were inoculated as biological replicates into a new 96 well deepwell plate containing 300 μL of M9+1% glucose, and grown overnight as for the primary screen. The next day, a cryogenic stock and half deepwell plates containing M9+1% glucose with or without glutaric acid or adipic acid were inoculated using the plate of overnight cultures, and growth was measured as described for the primary screen.
Probable important losses-of-function were determined by identifying genes across all isolates that harboured mutations, especially those occurring in multiple populations, and by the presence of at least one mutation that either generated a premature stop codon, a frameshift mutation, or the presence of an insertion element sequence within the gene. For those genes, the corresponding knockout strain from the Keio collection of single knockout mutants (where each gene is replaced with a cassette consisting of a kanamycin resistance gene flanked by FRT sites) was used as a donor strain for P1vir phage transduction. Briefly, the Keio strain was grown to early exponential phase in LB+5 mM CaCl2 and 80 μL of a P1vir stock raised on K-12 MG1655 was added. After significant lysis was observed after 1.5 to 2 hours, the lysate was filter-sterilized to remove cells and stored at 4° C. Strain K-12 MG1655 was grown overnight in LB+5 mM CaCl2) and 100 μL of the overnight culture was mixed with 100 μL of the P1vir lysate of the Keio collection mutant, and the mixture was incubated at 37° C. without shaking for 20 minutes. The entire mixture was then plated on LB agar containing 1.25 mM sodium pyrophosphate as a chelating agent and 25 μg/mL kanamycin. One colony was then restruck on LB+1.25 mM […]+25 μg/mL kanamycin plate and analyzed for presence of the Keio cassette in place of the wild-type gene by colony PCR. When further knockouts were constructed in the same strain, the Keio cassette was flipped out to generate a scar sequence such that Kan^R marker could be recycled. […]

Setting [1] is: strain MG1655 ΔkgtP proV::kan, M9 + 50 g/L adipate (neutralized).

Turning to `O=C(O)CCCC(=O)O` [glutaric acid], under “strain MG1655 ΔkgtP proV::kan, M9 + 47.5 g/L glutarate (neutralized)”, the “mean lag time tlag” value was 13.0 h. The “mean growth rate μ” value (strain MG1655 ΔkgtP sspA::kan, M9 + 47.5 g/L glutarate (neutralized)) was 0.225 h⁻¹.

Consider `O=C(O)CCCCC(=O)O` [adipic acid], for which, under setting [1], the “mean growth rate μ” value amounted to 0.264 h⁻¹ and the “mean lag time tlag” value worked out at 16.5 h. In addition, for the setting “strain MG1655 ΔkgtP sspA::kan, M9 + 50 g/L adipate (neutralized)”, the “mean growth rate μ” value amounted to 0.117 h⁻¹.
